ChEMBL document CHEMBL2057116, “A novel tetrahydrobenzoangelicin with dark and photo biological activity” (Bioorg Med Chem, 2012)
The source made the active and inactive calls. The calls are words filed in the database; no cut-off is given here.

Experiments:
A-431 [1] = assay: Ratio of IC50 for 8-MOP to compound IC50 for human A431 cells incubated for 1 hr with inhibitor followed by UV irradiation measured after 24 hrs by trypan blue dye assay; assay type: functional
A-431 [2] = assay: Antiproliferative activity against human A431 cells after 24 hrs by trypan blue dye assay; assay type: functional, cell-based; settings: A-431, 24 h
HeLa [3] = assay: Antiproliferative activity against human HeLa cells incubated for 1 hr with inhibitor followed by UV irradiation measured after 24 hrs by trypan blue dye assay; assay type: functional, cell-based; settings: light or radiation study
HeLa [4] = assay: Ratio of IC50 for 8-MOP to compound IC50 for human HeLa cells incubated for 1 hr with inhibitor followed by UV irradiation measured after 24 hrs by trypan blue dye assay; assay type: functional
HeLa [5] = assay: Antiproliferative activity against human HeLa cells after 24 hrs by trypan blue dye assay; assay type: functional, cell-based
A-431 [6] = assay: Antiproliferative activity against human A431 cells incubated for 1 hr with inhibitor followed by UV irradiation measured after 24 hrs by trypan blue dye assay; assay type: functional, cell-based; settings: A-431, light or radiation study
[7] = target: DNA topoisomerase 2-alpha (Homo sapiens) (UniProt P11388); assay: Inhibition of human recombinant topoisomerase 2alpha-mediated pBR322 DNA complex formation at 8 uM after 60 mins by agarose gel electrophoresis
Sequence of DNA topoisomerase 2-alpha (Homo sapiens) (P11388 whole entry): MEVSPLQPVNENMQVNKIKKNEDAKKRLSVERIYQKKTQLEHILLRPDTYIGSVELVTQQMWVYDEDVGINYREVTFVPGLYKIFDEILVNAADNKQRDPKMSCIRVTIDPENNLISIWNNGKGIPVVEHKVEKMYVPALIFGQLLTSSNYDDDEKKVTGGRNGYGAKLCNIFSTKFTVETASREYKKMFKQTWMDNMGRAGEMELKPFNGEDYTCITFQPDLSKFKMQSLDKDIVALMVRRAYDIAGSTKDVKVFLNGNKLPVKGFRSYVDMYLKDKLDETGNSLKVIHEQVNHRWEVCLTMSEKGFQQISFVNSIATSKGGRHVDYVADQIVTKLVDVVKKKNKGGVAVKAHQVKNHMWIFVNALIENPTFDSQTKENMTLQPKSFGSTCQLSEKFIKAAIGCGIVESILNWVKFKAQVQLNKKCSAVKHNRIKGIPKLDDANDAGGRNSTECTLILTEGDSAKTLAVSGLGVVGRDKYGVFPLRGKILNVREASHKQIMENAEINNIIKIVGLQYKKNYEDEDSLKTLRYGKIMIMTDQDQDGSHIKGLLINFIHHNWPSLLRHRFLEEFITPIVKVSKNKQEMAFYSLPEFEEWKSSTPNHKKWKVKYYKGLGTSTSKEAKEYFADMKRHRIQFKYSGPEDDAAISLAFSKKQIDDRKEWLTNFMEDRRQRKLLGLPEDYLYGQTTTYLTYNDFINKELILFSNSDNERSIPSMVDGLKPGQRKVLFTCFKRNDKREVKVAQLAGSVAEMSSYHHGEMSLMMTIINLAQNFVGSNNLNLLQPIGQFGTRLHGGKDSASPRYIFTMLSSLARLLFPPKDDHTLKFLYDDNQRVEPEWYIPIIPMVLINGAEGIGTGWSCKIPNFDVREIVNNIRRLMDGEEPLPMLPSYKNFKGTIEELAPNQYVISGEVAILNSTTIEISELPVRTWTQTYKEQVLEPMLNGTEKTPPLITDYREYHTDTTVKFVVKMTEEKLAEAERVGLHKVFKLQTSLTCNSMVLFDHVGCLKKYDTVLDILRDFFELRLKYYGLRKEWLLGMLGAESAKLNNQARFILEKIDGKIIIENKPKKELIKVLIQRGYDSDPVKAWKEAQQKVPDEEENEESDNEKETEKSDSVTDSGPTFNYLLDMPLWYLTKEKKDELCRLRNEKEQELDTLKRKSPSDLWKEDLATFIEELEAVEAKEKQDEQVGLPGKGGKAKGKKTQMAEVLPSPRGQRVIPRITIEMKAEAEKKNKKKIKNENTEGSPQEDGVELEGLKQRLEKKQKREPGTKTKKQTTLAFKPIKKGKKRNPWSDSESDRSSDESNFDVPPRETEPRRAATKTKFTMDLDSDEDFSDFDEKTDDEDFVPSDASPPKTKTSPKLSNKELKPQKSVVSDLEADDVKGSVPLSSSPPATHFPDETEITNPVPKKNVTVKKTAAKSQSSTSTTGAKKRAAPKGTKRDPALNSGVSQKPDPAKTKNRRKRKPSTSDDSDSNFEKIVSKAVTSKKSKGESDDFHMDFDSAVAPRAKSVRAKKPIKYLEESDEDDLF

[8] = target: DNA topoisomerase 2-alpha (Homo sapiens) (UniProt P11388); assay: Inhibition of human recombinant topoisomerase 2alpha-mediated pBR322 DNA relaxation at 8 uM after 60 mins by agarose gel electrophoretic analysis
[9] = target: DNA topoisomerase 2-alpha (Homo sapiens) (UniProt P11388); assay: Inhibition of human recombinant topoisomerase 2alpha-mediated pBR322 DNA relaxation at 5 uM after 60 mins by agarose gel electrophoretic analysis
[10] = target: DNA topoisomerase 2-alpha (Homo sapiens) (UniProt P11388); assay: Inhibition of human recombinant topoisomerase 2alpha-mediated pBR322 DNA relaxation after 60 mins by agarose gel electrophoretic analysis
[11] = target: DNA topoisomerase 2-alpha (Homo sapiens) (UniProt P11388); assay: Inhibition of human recombinant topoisomerase 2alpha-mediated pBR322 DNA complex formation at 10 uM after 60 mins by agarose gel electrophoresis
Nucleic Acid [12] = assay: Photoaddition to salmon testes DNA assessed as thymine-photoadduct formation by UV-Vis spectrophotometric analysis; assay type: nucleic-acid assay; settings: Salmonidae
Nucleic Acid [13] = assay: Binding affinity to salmon testes DNA assessed as change in linear dichroism at compound to DNA ratio of 0.02 to 0.08 by circular dichroism analysis; assay type: nucleic-acid assay; settings: Salmonidae
[14] = target: DNA topoisomerase 2-alpha (Homo sapiens) (UniProt P11388); assay: Inhibition of human recombinant topoisomerase 2alpha-mediated pBR322 DNA relaxation at 10 uM after 60 mins by agarose gel electrophoretic analysis

SMILES	Ratio IC50 (A-431 [1])	IC50 (A-431 [2]) [µM]	IC50 (HeLa [3]) [µM]	Ratio IC50 (HeLa [4])	IC50 (HeLa [5]) [µM]	IC50 (A-431 [6]) [µM]	inhibition [7]	inhibition [8]	inhibition [9]	inhibition [10]	inhibition [11]	Activity (Nucleic Acid [12])	Activity (Nucleic Acid [13])	inhibition [14]
Cc1cc(=O)oc2c1c(OCCCN(C)C)cc1oc3ccccc3c12	5.9	> 20	1.4	5.9	> 20	4.2								
COc1cc(NS(C)(=O)=O)ccc1Nc1c2ccccc2nc2ccccc12							Active	Active						
Cc1cc(=O)oc2c1c(OCCCN(C)C)cc1oc3c(c12)CCCC3	5.9	6.7	0.4	5.9	7.2	2			Active	Dose-dependent effect	inactive	Active	Active	Active
COc1c2occc2cc2ccc(=O)oc12 [METHOXSALEN]		> 30			> 30	25								
